From patent publication US12448394B2, “Heterocyclic pyrazole derivatives as type III receptor tyrosine kinase inhibitors” (DEVELOPMENT CENTER FOR BIOTECHNOLOGY, priority 2019, dated 2025)
Like-named read-outs stand apart in the source and are kept apart here.

What was measured:
[1] = system: A375 melanoma cell with BRAF V600E mutation; assay: A375 cell proliferation assay (counter screen); assay type: cell-based, human; conditions: 72 hours treatment, CellTiter96, read-out: anti-proliferation activity A375 BRAF V600E, IC50 ranking
Procedure: (§1) Inhibitions of cell growths by compounds were measured using CellTiter™-96 assay. The cytotoxicities of compounds of the invention were evaluated in cell line panels with different signaling pathway dependencies, including MV4-11 human acute myeloid leukemia cell with FLT3-ITD mutation, Molm-14 human acute myeloid leukemia cell with FLT3-ITD mutation, THP-1 human acute monocytic leukemia cell with NRAS G12D mutation, A375 melanoma cell with BRAF V600E mutation, and HCC827 NSCLC cell with EGFR exon 19 deletion mutation.
(§2) A375 cells are melanoma cells encoding BRFA V600E mutation, which renders the cell growth dependent on BRAF signaling instead of class III RTKs signaling. A375 cells (catalog #CRL-1619) were obtained from the ATCC. Briefly, cells were cultured in DMEM containing 10% FBS and incubated at 37° C. in 5% CO2 atmosphere. Cells were allowed to expand until reaching saturation, at which point they were sub-cultured or harvested for assay use.
(§3) MV4-11, Molm-14, THP-1, A375, and HCC827 cells were seeded into 96-well plates at 6500, 25000, 5000, 2000 and 8000 cells/well, respectively, and incubated at 37° C., 5% CO2 overnight. Then, these seeded cells were treated with increasing concentrations of the test compounds and incubated for another 72 hours. At the end of the incubation, CellTiter96® AQueous One Solution Reagent (Promega, […]) was added and incubated for the additional 2˜4 hours. Cell viability was determined by measuring absorbance at 490 nm using EMax® microplate reader (Molecular Devices, San Jose, CA, USA).

[2] = biological target: T1, MET kinase (Homo sapiens, UniProt P08581); assay: MET kinase assay (AlphaScreen, counter screen); assay type: biochemical; conditions: read-out: Ranking of IC50 values, MET
T1 construct: purchased SignalChem
Procedure: Because MET kinase belonged to Class VIII RTK family have one transmembrane a chain linked with one extracellular β chain which is different form Class III RTK family with 5 Immunoglobin-like extracellular domains. Standard assay conditions were 1 ng of recombinant MET kinase (SignalChem) with 3 ng Biotin-conjugated Poly-(Glu 4: Tyr 1) (Cisbio) in the assay buffer ([…], 10 mM MOPs, pH 7.0, 0.21 mM EDTA, 0.5% glycerol, 1 mg/mL BSA, 0.01% 2-mercaptoethanol, 0.001% Brij35, 10 mM MgCl2) in a final volume of 25 μL. Reactions were incubated at 30° C. for 45 min and stopped by adding 5 μL of 50 mM EDTA. Analysis of resulting product using an AlphaScreen kit and counted with Enspire Alpha (PerkinElmer). […] The IC50 values of inhibitors were determined after carrying out assays with each compound at serially diluted concentrations in duplication. The results were analyzed using linear regression software (GraphPad Prism 5; GraphPad Software Inc.)

[3] = system: HCC827 NSCLC cell with EGFR exon 19 deletion mutation; assay: HCC827 cell proliferation assay (counter screen); assay type: cell-based, human; conditions: HCC827 cells, 72 hours treatment, CellTiter96, read-out: anti-proliferation activity HCC827 EGFR Exon19 del, IC50 ranking
Procedure: as §1
as §2, with “HCC827” for “A375”, “non-small cell lung carcinoma (NSCLC)” for “melanoma”, “EGFR exon 19 deletion” for “BRFA V600E”, “EGFR” for “BRAF”, “#CRL-2868)” for “#CRL-1619)”, “RPMI1640 medium supplemented with” for “DMEM containing”
as §3

[4] = system: THP-1 human acute monocytic leukemia cell with NRAS G12D mutation; assay: THP-1 cell proliferation assay (counter screen); assay type: cell-based; conditions: THP-1 cells, 72 hours treatment, CellTiter96, read-out: anti-proliferation activity THP-1 NRAS N12D, IC50 ranking
Procedure: as §1
THP-1 cells are human acute monocytic leukemia cells with NRAS G12D mutation, which renders the cell growth independent of class III RTKs signaling. THP-1 cells (catalog #TIB-202) were obtained from the ATCC. Briefly, cells were grown in RPMI 1640 medium supplemented with 10% heat inactivated fetal bovine serum and 0.05 mM 2-mercaptoethanol and incubated at 37° C. in 5% CO2 atmosphere. Cells were allowed to expand until reaching saturation, at which point they were sub-cultured or harvested for assay use.
as §3

[5] = Homo sapiens, A-375, A375 cells

T1 sequence (P08581 25-1390): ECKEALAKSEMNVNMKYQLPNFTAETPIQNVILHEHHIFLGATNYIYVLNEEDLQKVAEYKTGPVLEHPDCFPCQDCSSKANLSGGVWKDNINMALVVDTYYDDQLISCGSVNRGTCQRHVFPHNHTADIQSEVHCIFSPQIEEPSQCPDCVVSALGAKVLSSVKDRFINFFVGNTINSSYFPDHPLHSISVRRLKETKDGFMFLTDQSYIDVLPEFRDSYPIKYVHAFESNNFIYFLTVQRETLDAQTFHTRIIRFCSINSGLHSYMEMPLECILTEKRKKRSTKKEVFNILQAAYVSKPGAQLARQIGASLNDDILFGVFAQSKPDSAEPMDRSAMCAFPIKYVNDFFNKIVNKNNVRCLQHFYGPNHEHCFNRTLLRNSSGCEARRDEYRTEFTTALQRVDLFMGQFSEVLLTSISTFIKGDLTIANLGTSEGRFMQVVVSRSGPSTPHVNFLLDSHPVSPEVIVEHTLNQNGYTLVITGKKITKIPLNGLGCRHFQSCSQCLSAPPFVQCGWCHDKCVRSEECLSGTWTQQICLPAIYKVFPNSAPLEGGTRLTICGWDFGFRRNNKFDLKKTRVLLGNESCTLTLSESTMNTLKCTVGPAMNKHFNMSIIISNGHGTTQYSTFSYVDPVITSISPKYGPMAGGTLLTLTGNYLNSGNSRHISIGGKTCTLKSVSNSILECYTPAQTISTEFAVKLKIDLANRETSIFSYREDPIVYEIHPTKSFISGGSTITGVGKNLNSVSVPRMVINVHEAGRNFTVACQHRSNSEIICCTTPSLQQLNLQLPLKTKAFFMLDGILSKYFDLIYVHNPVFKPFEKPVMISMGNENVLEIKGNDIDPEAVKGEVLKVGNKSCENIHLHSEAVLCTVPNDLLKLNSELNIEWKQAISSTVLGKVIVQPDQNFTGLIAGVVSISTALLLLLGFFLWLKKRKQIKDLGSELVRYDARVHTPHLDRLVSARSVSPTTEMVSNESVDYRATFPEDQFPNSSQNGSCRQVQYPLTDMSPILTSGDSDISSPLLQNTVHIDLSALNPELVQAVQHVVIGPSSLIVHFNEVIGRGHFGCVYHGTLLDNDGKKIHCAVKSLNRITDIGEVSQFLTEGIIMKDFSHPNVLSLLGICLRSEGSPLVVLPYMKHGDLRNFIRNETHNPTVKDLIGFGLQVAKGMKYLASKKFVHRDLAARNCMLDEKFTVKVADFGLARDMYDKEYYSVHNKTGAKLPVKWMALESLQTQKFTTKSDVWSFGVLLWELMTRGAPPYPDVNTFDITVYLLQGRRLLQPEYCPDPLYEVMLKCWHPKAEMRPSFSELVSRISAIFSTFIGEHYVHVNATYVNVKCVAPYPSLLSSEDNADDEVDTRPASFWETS

SMILES | IC50 [1, 5] | IC50 [2] | IC50 ([3]; Homo sapiens) | IC50 ([4]; Homo sapiens) | IC50 ([1]; A375 cells) | IC50 [3] | IC50 [4]
Cn1ncc2ccc(-c3n[nH]c4c3Cc3sc(-c5ccc(CCN6CCOCC6)cc5)cc3-4)cc21 [Compound 22, 4-(4-(3-(1-methyl-1H-indazol-6-yl)-1,4-dihydro-thieno[2′,3′:4,5]cyclopenta [1,2-c]pyrazol-6-yl)phenethyl)morpholine] | > 10 µM | > 1 µM | > 10 µM | > 10 µM |  |  | 
Cn1ncc2ccc(-c3n[nH]c4c3Cc3sc(-c5ccc(C(=O)N6CCOCC6)nc5)cc3-4)cc21 [Compound 23, (5-(3-(1-methyl-1H-indazol-6-yl)-1,4-dihydro-thieno[2′,3′:4,5]cyclopenta [1,2-c]pyrazol-6-yl)pyridin-2-yl)(morpholino) methanone] | > 10 µM | > 1 µM | > 10 µM | > 10 µM |  |  | 
COc1cc(-c2cc3c(s2)Cc2c(-c4ccc5cnn(C)c5c4)n[nH]c2-3)ccc1CN1CCOCC1 [Compound 24, 4-(2-methoxy-4-(3-(1-methyl-1H-indazol-6-yl)-1,4-dihydrothieno[2′,3′:4,5]cyclopenta[1,2-c]pyrazol-6-yl)benzyl)morpholine] | > 10 µM | > 1 µM | > 10 µM | > 10 µM |  |  | 
Cn1ncc2ccc(-c3n[nH]c4c3Cc3sc(-c5ccc(CN6CCOCC6)c(F)c5)cc3-4)cc21 [Compound 25, 4-(2-fluoro-4-(3-(1-methyl-1H-indazol-6-yl)-1,4-dihydrothieno[2′,3′:4,5]cyclopenta[1,2-c]pyrazol-6-yl)benzyl)morpholine] | > 10 µM | > 1 µM | > 10 µM | > 10 µM |  |  | 
Cc1cc(-c2cc3c(s2)Cc2c(-c4ccc5cnn(C)c5c4)n[nH]c2-3)ccc1CN1CCOCC1 [Compound 26, 4-(2-methyl-4-(3-(1-methyl-1H-indazol-6-yl)-1,4-dihydrothieno[2′,3′:4,5]cyclopenta[1,2-c]pyrazol-6-yl)benzyl)morpholine] | > 10 µM | > 1 µM | > 10 µM | > 10 µM |  |  | 
Cn1ncc2ccc(-c3n[nH]c4c3Cc3sc(-c5ccc(CN6CCOCC6)c(C(F)(F)F)c5)cc3-4)cc21 [Compound 27, 4-(4-(3-(1-methyl-1H-indazol-6-yl)-1,4-dihydrothieno[2′,3′:4,5]cyclopenta[1,2-c]pyrazol-6-yl)-2-(trifluoromethyl)benzyl)morpholine] | > 10 µM | > 1 µM | > 10 µM | > 10 µM |  |  | 
CCC(c1ccc(-c2cc3c(s2)Cc2c(-c4ccc5cnn(C)c5c4)n[nH]c2-3)cc1)N1CCOCC1 (centres unmarked) [Compound 28, 4-(1-(4-(3-(1-methyl-1H-indazol-6-yl)-1,4-dihydro-thieno[2′,3′:4,5]cyclopenta [1,2-c]pyrazol-6-yl)phenyl)propyl)morpholine] | > 10 µM | > 1 µM | > 10 µM | > 10 µM |  |  | 
COc1cc(CN2CCOCC2)ccc1-c1cc2c(s1)Cc1c(-c3ccc4cnn(C)c4c3)n[nH]c1-2 [Compound 29, 4-(3-methoxy-4-(3-(1-methyl-1H-indazol-6-yl)-1,4-dihydrothieno [2′,3′:4,5]cyclopenta[1,2-c]pyrazol-6-yl)benzyl) morpholine] | > 10 µM | > 1 µM | > 10 µM | > 10 µM |  |  | 
Cn1ncc2ccc(-c3n[nH]c4c3Cc3sc(-c5cncc(C(=O)N6CCOCC6)c5)cc3-4)cc21 [Compound 31, (5-(3-(1-methyl-1H-indazol-6-yl)-1,4-dihydrothieno[2′,3′:4,5]cyclopenta[1,2-c]pyrazol-6-yl)pyridin-3-yl) (morpholino)methanone] | 1 to 10 µM | > 1 µM | 1 to 10 µM | 1 to 10 µM |  |  | 
Cn1ncc2ccc(-c3n[nH]c4c3Cc3sc(-c5ccc(CN6CCOCC6)cc5F)cc3-4)cc21 [Compound 32, 4-(3-fluoro-4-(3-(1-methyl-1H-indazol-6-yl)-1,4-dihydrothieno [2′,3′:4,5]cyclopenta [1,2-c]pyrazol-6-yl)benzyl)morpholine] | > 10 µM | > 1 µM | > 10 µM | > 10 µM |  |  | 
Cc1ccc(-c2cc3c(s2)Cc2c(-c4ccc5cnn(C)c5c4)n[nH]c2-3)cn1 [Compound 33, 3-(1-methyl-1H-indazol-6-yl)-6-(6-methylpyridin-3-yl)-1,4-dihydrothieno [2′,3′:4,5]cyclopenta [1,2-c]pyrazole] |  | > 1 µM |  |  | > 10 µM | > 10 µM | > 10 µM
Cn1ncc2ccc(-c3n[nH]c4c3Cc3sc(-c5ccc(C(=O)N6CCCCC6)cc5)cc3-4)cc21 [Compound 34, (4-(3-(1-methyl-1H-indazol-6-yl)-1,4-dihydro-thieno[2′,3′:4,5]cyclopenta [1,2-c]pyrazol-6-yl)phenyl)(piperidin-1-yl) methanone] | > 10 µM | > 1 µM | > 10 µM | > 10 µM |  |  | 
CC(C)Cn1ncc2ccc(-c3n[nH]c4c3Cc3sc(-c5ccc(CN6CCOCC6)cc5)cc3-4)cc21 [Compound 35, 4-(4-(3-(1-isobutyl-1H-indazol-6-yl)-1,4-dihydro-thieno[2′,3′:4,5]cyclopenta [1,2-c]pyrazol-6-yl)benzyl)morpholine] | > 10 µM | > 1 µM | > 10 µM | 1 to 10 µM |  |  | 
Cn1ncc2ccc(-c3n[nH]c4c3Cc3sc(-c5cccc(C(=O)N6CCOCC6)c5)cc3-4)cc21 [Compound 37, (3-(3-(1-methyl-1H-indazol-6-yl)-1,4-dihydro-thieno[2′,3′:4,5]cyclopenta [1,2-c]pyrazol-6-yl)phenyl)(morpholino) methanone] | > 10 µM | > 1 µM | > 10 µM | > 10 µM |  |  | 
Cn1ncc2ccc(-c3n[nH]c4c3Cc3sc(-c5ccc(C(=O)N6CCCC6)cc5)cc3-4)cc21 [Compound 38, (4-(3-(1-methyl-1H-indazol-6-yl)-1,4-dihydro-thieno[2′,3′:4,5]cyclopenta [1,2-c]pyrazol-6-yl)phenyl)(pyrrolidin-1-yl) methanone] | > 10 µM | > 1 µM | > 10 µM | > 10 µM |  |  | 
Cn1ncc2ccc(-c3n[nH]c4c3Cc3sc(-c5ccc(CN6CCSCC6)cc5)cc3-4)cc21 [Compound 39, 3-(1-methyl-1H-indazol-6-yl)-6-(4-(thiomorpho-linomethyl)phenyl)-1,4-dihydrothieno[2′,3′:4,5] cyclopenta[1,2-c]pyrazole] | > 10 µM | > 1 µM | > 10 µM | > 10 µM |  |  | 
Cn1ncc2ccc(-c3n[nH]c4c3Cc3sc(-c5cnc(C(=O)N6CCOCC6)nc5)cc3-4)cc21 [Compound 41, (5-(3-(1-methyl-1H-indazol-6-yl)-1,4-dihydrothieno[2′,3′:4,5]cyclopenta[1,2-c]pyrazol-6-yl)pyrimidin-2-yl) (morpholino)methanone] | > 10 µM | > 1 µM | > 10 µM | > 10 µM |  |  | 
